Results from article PMC7901699, “Challenging inflammatory process at molecular, cellular and in vivo levels via some new pyrazolyl thiazolones” (Journal of Enzyme Inhibition and Medicinal Chemistry, 2021).
“Also recorded” adds a separate entry of the source. Where two headings read alike, the source gives them in different places.

Assays:
rat stomach [1] = settings: in vivo, po, 5 mg/kg
IL-1β = IL-1β protein expression by Western blotting; format: cell-based, human; settings: 100 μM compound; PMA 24 h then LPS 72 h; normalised to GAPDH
Description: THP-1 monocytes were exposed to 100 μM of the test compounds, activated with 25 nM PMA for 24 h followed by 100 ng/ml LPS for 72 h. At the end of the incubation period, cells were harvested, proteins were extracted and SDS-PAGE electrophoresis, blotting, and antibody probing were conducted as described previously. Primary rabbit polyclonal antibodies to IL-1β, procaspase-3, and GAPDH were obtained from Abcam (Cambridge, UK). Clarity Western ECL substrate (BioRad, Hercules, CA, USA) was used to obtain a chemiluminescence signal captured by a Chemidoc imaging system (BioRad, Hercules, CA, USA). Band density was estimated using ImageJ software (National Institutes of Health, Bethesda, MD) and normalised to the GAPDH band density as a loading control.

[2] = tested on: PMA/LPS-stimulated THP-1 (M1 macrophages); experiment: Cytotoxicity assay on differentiated M1 macrophages (MTS); format: cell-based, human; settings: PMA 24 h, LPS 24 h, then compound 24 h; up to 100 μM
Description: To confirm that the previous observations were a consequence of interference of the compounds with the differentiation process rather than a reduction in monocyte viability, THP-1 monocytes were incubated with different concentrations of the compound for 30 h. No difference in cell viability was detected. Moreover, the cytotoxic effects of the drugs on differentiated macrophages were evaluated. Following the incubation of THP-1 cells with 25 nM PMA for 24 h and 100 ng/ml LPS for 24 h, the differentiated macrophages were treated with different concentrations of the compounds for 24 h. Cell viability was assessed using MTS colorimetric cell viability kit (Abcam, Cambridge, UK).

15-LOX = target: T1, 15-LOX (Glycine max, UniProt P08170); experiment: In vitro 15-LOX inhibition assay (lipoxygenase inhibitor screening kit, Cayman); format: biochemical; settings: mean of three determinations
T1 construct: purchased Cayman chemicals 760700
T1 sequence (P08170 1-839): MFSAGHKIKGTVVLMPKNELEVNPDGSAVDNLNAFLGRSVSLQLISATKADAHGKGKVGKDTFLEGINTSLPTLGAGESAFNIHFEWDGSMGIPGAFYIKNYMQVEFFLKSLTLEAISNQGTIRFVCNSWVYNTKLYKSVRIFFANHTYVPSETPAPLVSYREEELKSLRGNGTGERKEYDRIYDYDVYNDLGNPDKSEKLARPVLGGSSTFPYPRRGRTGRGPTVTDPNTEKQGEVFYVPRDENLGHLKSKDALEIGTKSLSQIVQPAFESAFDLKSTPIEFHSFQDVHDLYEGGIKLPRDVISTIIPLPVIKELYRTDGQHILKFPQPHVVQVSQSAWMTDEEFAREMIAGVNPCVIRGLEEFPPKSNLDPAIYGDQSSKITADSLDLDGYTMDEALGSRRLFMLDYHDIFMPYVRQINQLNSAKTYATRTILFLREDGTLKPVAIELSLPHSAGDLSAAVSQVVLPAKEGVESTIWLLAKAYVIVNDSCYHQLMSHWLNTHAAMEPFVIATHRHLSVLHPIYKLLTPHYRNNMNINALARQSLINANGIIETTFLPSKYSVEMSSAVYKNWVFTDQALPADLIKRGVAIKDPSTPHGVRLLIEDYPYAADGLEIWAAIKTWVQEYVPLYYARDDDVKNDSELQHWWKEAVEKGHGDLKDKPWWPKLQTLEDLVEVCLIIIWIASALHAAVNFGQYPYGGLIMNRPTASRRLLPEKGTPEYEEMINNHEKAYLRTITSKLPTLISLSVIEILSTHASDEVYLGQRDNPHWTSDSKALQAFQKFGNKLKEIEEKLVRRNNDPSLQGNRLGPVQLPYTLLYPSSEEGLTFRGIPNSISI
Description: (§1) Both assays were carried out in compliance with the manufacturer’s instructions and in accordance to prior studies[29]^,[33].
(§2) IC50 values (μM) and selectivity indices (SI) were calculated.

human recombinant COX-2 = target: T2, human recombinant COX-2 (Homo sapiens, UniProt P35354); experiment: In vitro COX-2 inhibition assay (colorimetric COX inhibitor screening kit, Cayman); format: biochemical; settings: for SI (COX-1/ COX-2): IC50 (COX-1)/IC50 (COX-2); for IC50: mean of three determinations
T2 construct: purchased Cayman Chemicals Inc. 560131
T2 sequence (P35354 18-604): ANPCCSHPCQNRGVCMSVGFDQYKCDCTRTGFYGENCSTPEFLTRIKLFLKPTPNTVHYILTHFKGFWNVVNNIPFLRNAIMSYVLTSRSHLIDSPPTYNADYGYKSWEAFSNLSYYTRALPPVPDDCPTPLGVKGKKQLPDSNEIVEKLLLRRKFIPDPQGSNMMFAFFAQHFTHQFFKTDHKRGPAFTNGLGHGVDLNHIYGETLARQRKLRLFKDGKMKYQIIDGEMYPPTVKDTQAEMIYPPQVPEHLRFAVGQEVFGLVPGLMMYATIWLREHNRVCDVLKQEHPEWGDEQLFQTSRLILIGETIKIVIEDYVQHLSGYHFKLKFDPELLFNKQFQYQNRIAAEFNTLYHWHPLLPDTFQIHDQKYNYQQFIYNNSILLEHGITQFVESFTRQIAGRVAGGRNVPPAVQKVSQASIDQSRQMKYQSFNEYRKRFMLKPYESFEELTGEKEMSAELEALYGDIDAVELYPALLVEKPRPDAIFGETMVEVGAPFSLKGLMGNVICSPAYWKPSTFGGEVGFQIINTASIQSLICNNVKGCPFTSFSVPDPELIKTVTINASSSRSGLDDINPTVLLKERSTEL
Description: as §1, §2

THP-1 cells [3] = experiment: Monocyte-to-macrophage differentiation assay, M1 polarisation (PMA then LPS); format: cell-based, human; settings: for IC50: Homo sapiens, THP-1, 6 h pre-incubation, PMA 25 nM 24 h then LPS 100 ng/ml 72 h, MTS, read-out: IC50 inhibition of THP-1 monocyte differentiation into M1 macrophages
Description: (§3) Monocytes were cultured and differentiated as described previously. THP-1 cells (human acute monocytic leukaemia lineage, American Type Culture Collection, Manassas, VA) were seeded at a density of 20 × 10^5 cells/ml. A set of cells were exposed to 25 nM of phorbol myristate-acetate (PMA, Calbiochem, Darmstadt, Germany) for 24 h to drive differentiation. Another set was similarly treated with PMA followed by 100 ng/ml of lipopolysaccharide (LPS, invivogen, San Diego, CA, USA) for 72 h. After incubation, the supernatant was aspirated and the density of the adherent cells was estimated using MTS colorimetric cell viability kit (Abcam, Cambridge, UK). The inhibitory actions of different compounds on the differentiation process were evaluated by pre-incubation with different concentrations of each compound for 6 h. Cell viability after treatment was normalised to the reading after PMA exposure following a 6-h incubation with DMSO. All experiments were conducted in triplicates. A positive control for the effect of COX1/COX2 inhibition on monocyte-to-macrophage differentiation was obtained by treatment with diclofenac. IC50 values for each compound were determined by non-linear regression as the best fit values of the log [inhibitor] vs. response curve using GraphPad Prism software.

rat stomach [4] = experiment: Gastric ulcerogenic activity and histopathological examination; settings: stomach removed on 8th day of administration, 5 mg/kg oral
ovine COX-1 = target: T3, ovine COX-1 (Ovis aries, UniProt P05979); experiment: In vitro COX-1 inhibition assay (colorimetric COX inhibitor screening kit, Cayman); format: biochemical; settings: mean of three determinations
T3 construct: purchased Cayman Chemicals Inc. 560131
T3 sequence (P05979 25-600): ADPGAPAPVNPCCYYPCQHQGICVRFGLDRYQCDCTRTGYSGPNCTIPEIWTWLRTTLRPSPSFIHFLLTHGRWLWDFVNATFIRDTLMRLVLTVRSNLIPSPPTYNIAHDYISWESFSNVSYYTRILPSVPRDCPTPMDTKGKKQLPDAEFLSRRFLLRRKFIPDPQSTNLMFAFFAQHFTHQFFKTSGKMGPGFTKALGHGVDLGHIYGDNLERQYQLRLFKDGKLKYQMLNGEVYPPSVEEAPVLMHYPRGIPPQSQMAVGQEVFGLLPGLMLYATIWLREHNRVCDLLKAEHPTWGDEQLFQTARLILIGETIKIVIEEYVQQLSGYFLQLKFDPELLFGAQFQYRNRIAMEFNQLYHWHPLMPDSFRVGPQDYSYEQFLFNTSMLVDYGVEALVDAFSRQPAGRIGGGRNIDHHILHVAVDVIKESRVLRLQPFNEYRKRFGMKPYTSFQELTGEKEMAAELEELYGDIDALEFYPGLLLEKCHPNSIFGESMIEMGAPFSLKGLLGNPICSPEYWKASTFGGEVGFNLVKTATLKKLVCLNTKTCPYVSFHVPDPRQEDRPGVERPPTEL
Description: as §1, §2

[5] = tested on: cotton pellet-induced granuloma; experiment: Cotton pellet-induced granuloma assay (chronic inflammation model); settings: oral 5 mg/kg daily; pellets excised on 8th day; vs diclofenac sodium and celecoxib; 5 mg/kg
THP-1 cells [6] = experiment: Monocyte-to-macrophage differentiation assay, resting M0 macrophages (PMA only); format: cell-based, human; settings: data not shown
Description: as §3

| Structure (SMILES) | Gross observation of isolated rat stomachs (rat stomach [1]) | Histopathological examination of stomach gastric layers (rat stomach [1]) | IL-1β expression in PMA/LPS-challenged THP-1 (IL-1β) | M1 macrophage cell viability [2] | IC50 (15-LOX) | SI (COX-1/ COX-2) (human recombinant COX-2) | IC50 (human recombinant COX-2) | IC50 (THP-1 cells [3]) | Inhibition of THP-1 differentiation into M1 macrophages (in words) (THP-1 cells [3]; PMA then LPS, diclofenac as reference) | Gross observation of isolated rat stomachs (rat stomach [4]) | Histopathological examination of stomach gastric layers (rat stomach [4]; H&E, 5 mg/kg) | IC50 (ovine COX-1) | Inhibition of cotton pellet granuloma weight (in words) [5] | IC50 for M0 macrophage differentiation (in words) (THP-1 cells [6]) |
| --- | --- | --- | --- | --- | --- | --- | --- | --- | --- | --- | --- | --- | --- | --- |
| Cc1ccc(-c2cc(C(F)(F)F)nn2-c2ccc(S(N)(=O)=O)cc2)cc1 [Celecoxib] | normal stomach texture | no ulceration with normal gastro-esophageal junction | – | – | – | – | – | – | – | – | – | – | – | – |
| O=C1N=C(N2CCOCC2)S/C1=C\c1cn(-c2ccccc2)nc1-c1ccccc1 [Compound 4, (Z)-5-((1,3-diphenyl-1H-pyrazol-4-yl)methylene)-2-morpholinothiazol-4(5H)-one] | – | – | attenuating IL-1β production | tended to slightly decrease | 4.63 µM | 80 | 0.14 µM | 11.3 µM | potent inhibitory effects on monocyte-to-macrophage differentiation; also recorded: higher potency compared to diclofenac | variable levels of hyperaemia without gross ulceration | esophago-gastric inflammation; also recorded: gastro-esophageal inflammatory infiltrates | 11.3 µM | – | – |
| COc1ccc(-c2nn(-c3ccccc3)cc2/C=C2\SC(N3CCOCC3)=NC2=O)cc1 [Compound 8, (Z)-5-((3-(4-methoxyphenyl)-1-phenyl-1H-pyrazol-4-yl)methylene)-2-morpholinothiazol-4(5H)-one] | – | – | attenuating IL-1β production | – | 4.64 µM | 113 | 0.11 µM | 347 µM | – | – | – | 12.4 µM | superior anti-inflammatory activity, when compared to diclofenac and celecoxib; also recorded: increased inhibition of granuloma weight in comparison to both celecoxib and diclofenac | – |
| O=C(O)Cc1ccccc1Nc1c(Cl)cccc1Cl [Diclofenac Na, Diclofenac sodium, reference compound] | – | – | – | – | – | – | – | 101 µM | – | normal stomach texture | – | – | – | comparable IC50 to that observed for the M1 macrophage differentiation |
